# Measurements taken from patent publication US5707798A, “Identification of ligands by selective amplification of cells transfected with receptors” (priority 1994, dated 1998).
# Columns and labels:
# [1] = target: T1, EP3 prostanoid receptor (Homo sapiens, UniProt P43115); format: cell-based; details: EP3, Table 2; read-out: Ligand EC50
# T1 construct: expressed in transfected cells; host or cells: NIH 3T3 (mouse fibroblasts, ATCC CRL 1658)
# T1 sequence (P43115 1-390): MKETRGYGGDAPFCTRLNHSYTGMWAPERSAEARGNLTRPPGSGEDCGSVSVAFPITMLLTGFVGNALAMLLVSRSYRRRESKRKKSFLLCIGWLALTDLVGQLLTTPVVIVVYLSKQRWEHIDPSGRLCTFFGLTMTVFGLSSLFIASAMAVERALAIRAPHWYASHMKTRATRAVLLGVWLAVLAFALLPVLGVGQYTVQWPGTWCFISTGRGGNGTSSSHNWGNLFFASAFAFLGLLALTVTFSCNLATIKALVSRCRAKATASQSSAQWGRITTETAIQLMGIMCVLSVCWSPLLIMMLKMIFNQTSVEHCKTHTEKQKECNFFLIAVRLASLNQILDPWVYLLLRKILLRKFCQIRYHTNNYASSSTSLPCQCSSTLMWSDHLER
# [2] = target: T2, alpha 2 C4 adrenergic receptor (Homo sapiens, UniProt P18825); format: cell-based; details: α2-C4, Table 3; relative to other ligands at the receptor
# T2 construct: expressed in transfected cells; host or cells: NIH 3T3 (mouse fibroblasts)
# T2 sequence (P18825 1-462): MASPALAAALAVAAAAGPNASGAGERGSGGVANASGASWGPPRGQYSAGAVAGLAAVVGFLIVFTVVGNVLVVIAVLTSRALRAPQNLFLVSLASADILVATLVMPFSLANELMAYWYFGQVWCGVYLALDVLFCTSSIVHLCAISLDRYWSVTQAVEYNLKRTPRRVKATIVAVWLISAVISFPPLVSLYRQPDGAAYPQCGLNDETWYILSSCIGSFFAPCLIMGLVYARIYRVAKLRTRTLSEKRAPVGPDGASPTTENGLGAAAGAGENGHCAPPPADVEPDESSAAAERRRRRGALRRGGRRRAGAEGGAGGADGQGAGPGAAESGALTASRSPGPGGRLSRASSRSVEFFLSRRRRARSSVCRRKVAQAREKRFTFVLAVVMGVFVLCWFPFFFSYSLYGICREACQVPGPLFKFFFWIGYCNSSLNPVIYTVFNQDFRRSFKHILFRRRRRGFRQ
# [3] = tested on: certain alpha adrenergic receptors; details: cited from earlier work
# [4] = tested on: Muscarinic acetylcholine receptors that stimulate phospholipase c (m1, m3, m5); details: cited from earlier work
# [5] = target: T3, m2 muscarinic receptor (Homo sapiens, UniProt P08172); assay: cell-based; format: cell-based
# T3 construct: expressed in transfected cells; host or cells: NIH 3T3 (mouse fibroblasts)
# T3 sequence (P08172 1-466): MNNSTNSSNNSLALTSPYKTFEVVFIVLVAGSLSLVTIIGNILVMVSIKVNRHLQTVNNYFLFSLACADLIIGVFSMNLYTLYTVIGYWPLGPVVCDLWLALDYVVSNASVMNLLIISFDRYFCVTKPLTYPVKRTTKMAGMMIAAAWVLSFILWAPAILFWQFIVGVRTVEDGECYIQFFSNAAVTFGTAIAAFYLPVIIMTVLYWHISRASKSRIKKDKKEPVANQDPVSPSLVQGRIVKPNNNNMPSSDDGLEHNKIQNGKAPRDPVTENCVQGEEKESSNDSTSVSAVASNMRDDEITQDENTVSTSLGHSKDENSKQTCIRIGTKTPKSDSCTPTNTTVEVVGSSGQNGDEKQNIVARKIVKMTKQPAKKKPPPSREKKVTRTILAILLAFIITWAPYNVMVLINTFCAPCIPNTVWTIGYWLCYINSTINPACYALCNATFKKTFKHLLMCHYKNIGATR
# [6] = target: T4, m5 muscarinic receptor (Homo sapiens, UniProt P08912); format: cell-based
# T4 construct: expressed in transfected cells; host or cells: NIH 3T3 (mouse fibroblasts)
# T4 sequence (P08912 1-532): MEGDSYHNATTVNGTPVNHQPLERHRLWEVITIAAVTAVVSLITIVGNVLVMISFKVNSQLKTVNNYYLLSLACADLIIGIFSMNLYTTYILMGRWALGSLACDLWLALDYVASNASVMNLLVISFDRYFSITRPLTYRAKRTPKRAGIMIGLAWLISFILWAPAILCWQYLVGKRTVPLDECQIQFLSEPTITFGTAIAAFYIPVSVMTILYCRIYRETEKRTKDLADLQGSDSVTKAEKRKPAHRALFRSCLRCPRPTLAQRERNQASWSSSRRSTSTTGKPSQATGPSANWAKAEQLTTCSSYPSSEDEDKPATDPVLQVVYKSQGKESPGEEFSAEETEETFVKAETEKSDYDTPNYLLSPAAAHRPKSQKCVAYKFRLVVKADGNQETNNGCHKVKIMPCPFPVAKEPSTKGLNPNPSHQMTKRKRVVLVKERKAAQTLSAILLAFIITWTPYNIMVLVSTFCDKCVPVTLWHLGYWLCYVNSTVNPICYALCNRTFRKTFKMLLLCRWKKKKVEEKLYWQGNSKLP
# [7] = target: T3, m2 muscarinic receptor; assay: β-galactosidase levels, m2 receptor in the absence of expressed G-protein; format: cell-based
# [8] = target: T4, m5 muscarinic receptor; assay: Focus induction in NIH 3T3 cells transfected with m5 DNA; format: cell-based; details: low concentrations
# [9] = tested on: NIH 3T3 cells; assay: Amplification response in the absence of the indicated target receptor; format: cell-based, mouse; details: absence of the ligand's target receptor
# Procedure: FIG. 16 illustrates the maximal ligand-induced responses of the indicated receptors, as assayed using cotransfected cultures using a Multiple Receptor Format similar to that described in FIG. 11. […] Cells were incubated in wells of a 96 well plate for 4 days with each ligand. Maximal responses were calculated by fitting the data to a model of a single mass-action site.
# [10] = target: T3, m2 muscarinic receptor; assay: cell-based
# [11] = target: T5, m4 muscarinic receptor (Homo sapiens, UniProt P08173); assay: cell-based
# T5 sequence (P08173 1-479): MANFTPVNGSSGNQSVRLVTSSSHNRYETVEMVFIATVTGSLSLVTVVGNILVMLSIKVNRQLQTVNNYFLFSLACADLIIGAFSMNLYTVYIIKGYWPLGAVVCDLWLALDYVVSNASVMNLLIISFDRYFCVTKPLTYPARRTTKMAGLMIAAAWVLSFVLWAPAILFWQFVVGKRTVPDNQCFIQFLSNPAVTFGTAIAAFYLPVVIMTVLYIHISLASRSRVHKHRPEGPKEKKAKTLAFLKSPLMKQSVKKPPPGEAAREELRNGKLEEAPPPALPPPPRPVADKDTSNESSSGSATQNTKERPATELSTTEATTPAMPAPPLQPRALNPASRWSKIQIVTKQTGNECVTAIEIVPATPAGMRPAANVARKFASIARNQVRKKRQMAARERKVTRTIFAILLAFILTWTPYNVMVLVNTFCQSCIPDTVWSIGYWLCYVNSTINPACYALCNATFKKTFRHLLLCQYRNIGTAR
# [12] = target: T6, m1 muscarinic receptor (Homo sapiens, UniProt P11229); assay: cell-based
# T6 sequence (P11229 1-460): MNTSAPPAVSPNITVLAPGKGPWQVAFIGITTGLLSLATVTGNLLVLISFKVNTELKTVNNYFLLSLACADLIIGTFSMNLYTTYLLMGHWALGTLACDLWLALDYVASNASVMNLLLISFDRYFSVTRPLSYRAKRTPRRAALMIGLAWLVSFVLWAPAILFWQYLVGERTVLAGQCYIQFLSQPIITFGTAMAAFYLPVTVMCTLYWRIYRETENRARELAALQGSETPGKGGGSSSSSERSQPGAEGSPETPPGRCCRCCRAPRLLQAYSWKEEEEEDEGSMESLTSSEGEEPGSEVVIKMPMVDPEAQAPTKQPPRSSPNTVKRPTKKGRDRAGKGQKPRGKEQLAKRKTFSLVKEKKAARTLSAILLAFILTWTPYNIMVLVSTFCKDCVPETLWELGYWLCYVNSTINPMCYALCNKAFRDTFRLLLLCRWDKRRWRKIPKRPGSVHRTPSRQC
# [13] = target: m3 muscarinic receptor (Homo sapiens, UniProt P20309); assay: cell-based
# m3 muscarinic receptor, sequence (P20309 whole entry): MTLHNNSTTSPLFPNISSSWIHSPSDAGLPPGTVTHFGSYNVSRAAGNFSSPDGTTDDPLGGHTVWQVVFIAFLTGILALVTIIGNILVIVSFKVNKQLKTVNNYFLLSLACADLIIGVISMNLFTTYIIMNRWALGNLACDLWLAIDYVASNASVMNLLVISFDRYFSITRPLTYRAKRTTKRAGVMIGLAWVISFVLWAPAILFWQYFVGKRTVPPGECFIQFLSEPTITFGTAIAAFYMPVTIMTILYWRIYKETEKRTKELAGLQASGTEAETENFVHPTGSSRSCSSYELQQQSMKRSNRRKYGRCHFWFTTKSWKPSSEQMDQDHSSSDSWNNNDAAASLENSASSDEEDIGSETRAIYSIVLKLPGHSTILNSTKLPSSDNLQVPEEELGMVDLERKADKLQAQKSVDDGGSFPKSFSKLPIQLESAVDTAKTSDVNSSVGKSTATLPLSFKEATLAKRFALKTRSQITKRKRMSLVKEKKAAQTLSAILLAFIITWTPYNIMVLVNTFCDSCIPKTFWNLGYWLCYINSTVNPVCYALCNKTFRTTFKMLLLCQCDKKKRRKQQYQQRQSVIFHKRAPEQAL
# [14] = target: T4, m5 muscarinic receptor; format: cell-based; remark: listed apart in the source
# [15] = target: trk A receptor; details: Table 2
# [16] = target: trk C receptor; set-up: Rmax: key to the marks not given beside the values
compound,measurement,setting,value
O=C(O)CCCCCC[C@H]1C(=O)CC[C@@H]1/C=C/[C@@H](O)COc1ccccc1 [MB28767],EC50,[1],270 ± 190 nM
NC[C@H](O)c1ccc(O)c(O)c1 [Norepinephrine],Max Response,[2],+
same,growth stimulation,[3],stimulates
CN1[C@@H]2CC[C@H]1C[C@@H](OC(=O)C(CO)c1ccccc1)C2 (stereo partly shown) [atropine],"block of agonist-stimulated phospholipase c, mitogenesis and foci",[4],blocked
C[N+](C)(C)CCOC(N)=O [carbachol],time to plateau of β-galactosidase induction,[5]; m2/q-i5,about five
same,induction of β-galactosidase levels,"[5]; m2/q-i5, time-course",significantly induce β-galactosidase levels
same,time to plateau of β-galactosidase induction,[6]; m5,about five
same,induction of β-galactosidase levels,"[6]; m5, time-course",significantly induce β-galactosidase levels
same,effect on β-galactosidase levels,[7],no effect on β-galactosidase levels
same,focus response,[8],robust ligand-dependent responses
same,induction of responses,[9],unable to induce responses
O[Si](CCCN1CCCCC1)(c1ccc(F)cc1)C1CCCCC1 (stereo not shown) [p-F-HHSiD],Ki,[10],501 nM
same,Ki,[11],50.1 nM
same,Ki,[12],251 nM
same,Ki,[13],31.6 nM
same,Ki,[14],79.4 nM
NT3: related neutrotrophic factor NT3,Ligand EC50,[15],> 1 µg/mL
same,Ligand EC50,[16]; Table 2,0.0024 ± 0.0011 µg/mL
same,Rmax,[16]; relative to other clones,++++
